Legend:
[1] = system: human retinal endothelial cells (HRECs); assay: Identification of receptor of midazolam through ROS concentration analysis; type: cell-based
Description: With reference to FIG. 10A, the HRECs of Test Example 1 were subjected to the respective treatments below, cultured for 10 min, treated with 10 μM H2DCFDA, stained for 10 min in a phenol-red-free low-serum medium, and measured using confocal microscopy to thus determine the fluorescence intensity of single cells.
As will be described below, flumazenil was used as a GABAA receptor antagonist and PK11195 was used as a TSOP receptor antagonist.
With reference to FIG. 10B, the HRECs of Test Example 1 were treated with 0 μM, 0.01 μM, 0.1 μM, 1 μM, 10 μM, 20 μM, and 50 μM flumazenil and 0 μM, 0.01 μM, 0.1 μM, 1 μM, 3 μM, 10 μM, and 30 μM PK11195, cultured for 1 hr, treated with 20 μM midazolam, cultured for 30 min, treated with 10 ng/ml VEGF, incubated for 10 min, treated with 10 μM H2DCFDA, stained for 10 min in a phenol-red-free low-serum medium, and then measured using confocal microscopy to thus determine the fluorescence intensity of single cells.

[2] = system: human retinal endothelial cells (HRECs); assay: Analysis of intracellular Ca^2+ (Fluo4-AM, confocal microscopy); type: cell-based
Description: (§1) Purchased from Applied Cell Biology Research Institute (Cell Systems, Kirkland, Wash.), human retinal endothelial cells (HRECs) were cultured in an M19 medium, containing 20% FBS, 3 ng/mL bFGF, 5 U/mL heparin, 100 U/mL penicillin and […], in a 2% gelatin-coated plate.
(§2) Before the following Test Examples 2 to 7, the HRECs were cultured for 6 hr in a medium containing 1% FBS and an antibiotic agent, thus preparing HRECs of Test Example 1.
With reference to FIG. 2A, the HRECs of Test Example 1 were subjected to the respective treatments below, stained with 2 μM Fluo4-AM at 37° C. for 30 min and then measured at time intervals of 10 sec using confocal microscopy (FV-300, Olympus, Tokyo, Japan).
With reference to FIG. 2B, the HRECs of Test Example 1 were subjected to the respective treatments below, cultured for 30 min, stained with 2 μM Fluo4-AM at 37° C. for 30 min and then measured at time intervals of 10 sec using confocal microscopy.

VEGF = assay: VEGF-induced vascular leakage in mouse ear (evans blue dye); type: in vivo, C57BL/6 mice; details: 24 hr before evans blue dye, 30 ng VEGF intradermally (FIG. 23)
Description: Six-week-old male C57BL/6 mice were administered 5 or 10 mg/kg midazolam by intraperitoneal injection. After 24 hr, mice were intravenously injected with 45 mg/kg evans blue dye. After 30 min circulation, 10 μl VEGF solution (30 ng) was injected intradermally into the dorsal part of ears. Representative images of vascular leakage in ears are shown in additional FIG. 23 (n=2/group).

TGase = assay: Analysis of TGase activity in retinas of diabetic mouse model; type: in vivo, C57BL/6 mice; details: intravitreal 2 μL of 2 mM midazolam, 2 μM cystamine or 500 mM MDC (FIGS. 14, 15)
Description: 6-week-old male C57BL/6 mice (DBL, EumSeong, Korea) were administered with streptozotocin (Sigma-Aldrich) dissolved in a 100 mM citrate buffer (pH 4.5) through intraperitoneal injection in an amount of 150 mg each per kg of mouse weight to give diabetic mouse models. In the diabetic mouse models, the blood glucose level was 19 mM or more when not fasting, and polyuria and diabetes, considered signs of diabetes, were observed. […]
48 μL of 100 mM 5-(biotinamido)pentylamine was injected into the left ventricle of each of normal mice (Normal), midazolam-administered normal mice (Midazolam), diabetic mice (Diabetic), midazolam-administered diabetic mice (Diabetic+Midazolam), flumazenil- and midazolam-administered diabetic mice (Diabetic+flumazenil+Midazolam), cystamine-administered diabetic mice (Diabetic+cystamine) and MDC-administered diabetic mice (Diabetic+MDC) and circulated for 10 min, after which cervical dislocation was performed, and the eyeballs were extracted, fixed with 4% paraformaldehyde for 45 min, incised and subjected to permeation treatment for 30 min. The obtained retinal samples were incubated with a blocking solution for 30 min, treated with FITC-conjugated streptavidin (1:200, v/v), stained for 1 hr, and measured using confocal microscopy. […]

β-catenin = assay: Analysis of adherens junction (β-catenin staining); type: cell-based, human; details: HRECs, 10 ng/mL VEGF 90 min with 20 μM midazolam, 5 μM BAPTA-AM, 1 mM NAC, 0.5 μM Trolox, 50 μM cystamine or 20 μM MDC (FIGS. 8, 9)
Description: as §1, §2
The HRECs of Test Example 1 were subjected to the respective treatments below and cultured for 30 min. Here, treatment with 10 ng/mL VEGF was performed for 90 min. Thereafter, the HRECs were treated with 1 mM 5-(biotinamido)pentylamine, incubated for 1 hr, fixed with 3.7% formaldehyde, treated with 0.2% triton X-100, treated with a blocking solution containing 138 mM NaCl, 0.1% Tween 20 and 2% BSA dissolved in a 20 mM Tris (pH 7.6) buffer, incubated for 30 min, incubated with a monoclonal β-catenin antibody (1:200; Santa Cruz Biotechnology) for 12 hr or more, incubated with a FITC-conjugated goat anti-mouse antibody, and measured using confocal microscopy. Some (the following i), ii), iii), iv)) of the results are shown in FIG. 8, and the β-catenin concentrations in the portions represented by the dotted lines in FIG. 8 are shown in FIG. 9. With reference to FIG. 9, 10 randomly selected cells were measured to determine the fluorescence intensity of single cells and thus quantify β-catenin.
β-catenin, which is a protein that mediates adherens junction like VE-cadherin, was analyzed to evaluate adherens junction.

Cc1ncc2n1-c1ccc(Cl)cc1C(c1ccccc1F)=NC2 [midazolam]
ROS concentration (VEGF-induced) compared to control ([1]; 20 μM midazolam 10 min then 10 ng/ml VEGF, no washing (FIG. 10A)): no significant ROS concentration increase was observed | ROS concentration (VEGF-induced, after washing) ([1]; 20 μM midazolam 30 min, washing with serum-free medium, then 10 ng/ml VEGF (FIG. 10A)): ROS concentration was increased | changes in intracellular Ca^2+ (VEGF-induced) ([2]; 10 ng/ml VEGF and 20 μM midazolam together (FIG. 2A)): no significant changes in intracellular Ca^2+ | changes in intracellular Ca^2+ (VEGF-induced, after washing) ([2]; 20 μM midazolam 30 min, washing with serum-free medium, then 10 ng/ml VEGF (FIG. 2A)): intracellular Ca^2+ elevation was caused | changes in intracellular Ca^2+ ([2]; 20 μM midazolam alone (FIG. 2A)): no significant changes in intracellular Ca^2+ | VEGF-induced vascular leakage in mouse ear (VEGF; 5 mg/kg midazolam intraperitoneal): not at 5 mg/kg | VEGF-induced vascular leakage in mouse ear (VEGF; 10 mg/kg midazolam intraperitoneal): suppressed | TGase activity in retina compared to normal mice (TGase): an increase in TGase activation was suppressed | β-catenin concentration / adherens junction disruption due to VEGF (β-catenin): exhibited the effect of preventing the adherens junction disruption due to VEGF
